# Biological target: T1, Recombinant human mPGES-1 (Homo sapiens, UniProt O14684)
# T1 construct: made in house; host or cells: CHO cells
# T1 sequence (O14684 1-152): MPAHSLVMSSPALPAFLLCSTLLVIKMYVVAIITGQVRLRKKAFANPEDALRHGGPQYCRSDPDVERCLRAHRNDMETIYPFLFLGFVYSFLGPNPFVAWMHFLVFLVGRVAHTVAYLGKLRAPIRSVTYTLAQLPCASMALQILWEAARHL
# Assay: In-vitro mPGES-1 inhibitor screening (inhibition of PGE2 formation from PGH2, HTRF detection)
# Format: biochemical
# Conditions: for inhibition at 1 µM: 1 μM test compound, read-out: Percentage inhibition at 1 μM; for inhibition at 1 µM / inhibition at 10 µM: crude microsomal fraction, 15 μM PGH2; for inhibition at 10 µM: 10 μM test compound, read-out: Percentage inhibition at 10 μM; for IC50: class symbol, concentration response curve
# Description: In-Vitro Protocol for Screening of mPGES-1 Inhibitors:
# mPGES-1 (microsomal prostaglandin E synthase-1) is a microsomal enzyme that converts endoperoxide substrate PGH2 (prostaglandin H2) to product PGE2 (prostaglandin E2) by isomerization in the presence of reduced glutathione (GSH). mPGES-1 inhibitors were screened by assessing their ability to inhibit formation of PGE2 from PGH2 in presence of mPGES-1 using an anti-PGE2 antibody based detection method. Recombinant human mPGES-1 was generated in-house by expression in CHO cells (Ouellet M et al. (2002), Protein Expression and Purification 26: 489-495). The assay was set up using crude microsomal fractions at protein concentration of 40-60 μg/mL. Test compounds were prepared in 100% dimethyl sulfoxide (DMSO) to obtain 20 mM stock solution and then diluted using assay buffer comprising 0.1 M Potassium phosphate buffer with 2 mM EDTA. The final concentration of DMSO in reaction was 0.5% (v/v). Negative controls were comprised of all assay reagents except the enzyme. Positive controls were comprised of the enzyme reaction in the absence of any inhibitor. Test compounds were incubated for 10 minutes in assay buffer containing 2.5 mM GSH and mPGES-1 enzyme followed by addition of PGH2 at a concentration of 15 μM for 1 minute. The reaction was stopped by addition of Stannous chloride (11 mg/ml) and PGE2 levels were measured (Masse F et al. (2005), Journal of Biomolecular Screening 10(6) 599-605., Goedken R E et al. (2008), Journal of Biomolecular Screening 13(7): 619-625) by HTRF kit (CisBio)).
# Inhibition of mPGES-1 enzyme activity was measured using the percent of reaction occurring in the positive control. Concentration response curves were plotted using percent inhibition of maximum enzyme reaction. The IC50 value was calculated from the concentration response curve by nonlinear regression analysis using GraphPad PRISM software.
Structure (SMILES),inhibition at 1 µM [%],inhibition at 10 µM [%],IC50 [µM]
"CCOc1ccnc2c(NC(=O)c3c(Cl)ccc(CNC(=O)C(C)(C)C)c3F)cccc12 [Example-63, 6-Chloro-N-(4-ethoxyquinolin-8-yl)-2-fluoro-3-(pivalamidomethyl)benzamide]",90.8,94.7,< 0.05
"CC(C)(C)C(=O)NCc1ccc(Cl)c(C(=O)Nc2cccc3c(Nc4ccc(F)c(C(F)(F)F)c4)ncnc23)c1F [Example-25, 6-Chloro-2-fluoro-N-(4-((4-fluoro-3-(trifluoromethyl)phenyl)amino)quinazolin-8-yl)-3-(pivalamidomethyl)benzamide]",97.7,98.3,< 0.05
"CC(C)(C)Nc1ncnc2c(NC(=O)c3c(Cl)ccc(CNC(=O)C(C)(C)CO)c3F)cccc12 [Example-69, N-(4-(tert-Butylamino)quinazolin-8-yl)-6-chloro-2-fluoro-3-((3-hydroxy-2,2-dimethylpropanamido)methyl)benzamide]",84.9,98.2,< 0.05
"CC(C)(C)C(=O)NCc1ccc(Cl)c(C(=O)Nc2cccc3c(Oc4cccc(C(F)(F)F)c4)ncnc23)n1 [Example-9, 3-Chloro-6-(pivalamidomethyl)-N-(4-(3-(trifluoromethyl)phenoxy)quinazolin-8-yl)picolinamide]",99.1,100,< 0.05
"CCOc1ncnc2c(NC(=O)c3c(Cl)ccc(CNC(=O)C(C)(C)C)c3F)cccc12 [Example-43, 6-Chloro-N-(4-ethoxyquinazolin-8-yl)-2-fluoro-3-(pivalamidomethyl)benzamide]",98.4,99.9,< 0.05
"CC(C)(C)C(=O)NCc1ccc(Cl)c(C(=O)Nc2cccc3c(Oc4ccc(F)c(C(F)(F)F)c4)ncnc23)c1F [Example-52, 6-Chloro-2-fluoro-N-(4-(4-fluoro-3-(trifluoromethyl)phenoxy)quinazolin-8-yl)-3-(pivalamidomethyl)benzamide]",94.5,95.3,< 0.05
"CC(C)(C)C(=O)NCc1ccc(Cl)c(C(=O)Nc2cccc3c(O[C@H]4CC[C@H](C(F)(F)F)CC4)ncnc23)c1 [Example-39, 2-Chloro-5-(pivalamidomethyl)-N-(4-(((1r,4r)-4-(trifluoromethyl)cyclohexyl)oxy)quinazolin-8-yl)benzamide]",98,99.5,< 0.05
"CC(C)C(=O)NCc1cnc(C(F)F)c(C(=O)Nc2cccc3c(Oc4ccc(F)c(C(F)(F)F)c4)ccnc23)c1 [Example-80, 2-(Difluoromethyl)-N-(4-(4-fluoro-3-(trifluoromethyl)phenoxy)quinolin-8-yl)-5-(isobutyramidomethyl)nicotinamide]",99.7,98.5,< 0.05
"CC(C)(C)C(=O)NCc1ccc(Cl)c(C(=O)Nc2cccc3c(Oc4cc(C(F)(F)F)ccc4F)ccnc23)c1F [Example-40, 6-Chloro-2-fluoro-N-(4-(2-fluoro-5-(trifluoromethyl)phenoxy)quinolin-8-yl)-3-(pivalamidomethyl)benzamide]",99.3,98.5,< 0.05
"Cc1nc(NC2CCC(C)(C)CC2)c2cccc(NC(=O)c3c(Cl)ccc(CNC(=O)C(C)(C)C)c3F)c2n1 [Example-54, 6-Chloro-N-(4-((4,4-dimethylcyclohexyl)amino)-2-methylquinazolin-8-yl)-2-fluoro-3-(pivalamidomethyl)benzamide]",98.2,97.3,< 0.05
"CC(C)(C)C(=O)NCc1ccc(Cl)c(C(=O)Nc2cccc3c(Nc4cccc(C(F)(F)F)c4)nccc23)c1 [Example-4, 2-Chloro-5-(pivalamidomethyl)-N-(1-((3-(trifluoromethyl)phenyl)amino)isoquinolin-5-yl)benzamide]",98.6,99.8,< 0.05
"CC(C)C(=O)NCc1cnc(C(F)F)c(C(=O)Nc2cccc3c(NC(C)(C)C)ncnc23)c1 [Example-75, N-(4-(tert-Butylamino)quinazolin-8-yl)-2-(difluoromethyl)-5-(isobutyramidomethyl)nicotinamide]",93.6,98.3,< 0.05
"CC(C)(C)C(=O)NCc1ccc(Cl)c(C(=O)Nc2cccc3c(NC4CCC(F)(F)CC4)ncnc23)c1F [Example-20, 6-Chloro-N-(4-((4,4-difluorocyclohexyl)amino)quinazolin-8-yl)-2-fluoro-3-(pivalamidomethyl)benzamide]",98.8,99.4,< 0.05

# Further lines, results first:
inhibition at 1 µM [%],inhibition at 10 µM [%],IC50 [µM],Structure (SMILES)
100,100,< 0.05,"CC1(C)CCC(Oc2nccc3c(NC(=O)c4c(Cl)ccc(CNC(=O)C(C)(C)C)c4F)cccc23)CC1 [Example-35, 6-Chloro-N-(1-((4,4-dimethylcyclohexyl)oxy)isoquinolin-5-yl)-2-fluoro-3-(pivalamidomethyl)benzamide]"
99.6,98.3,< 0.05,"CC(C)(C)C(=O)NCc1ccc(Cl)c(C(=O)Nc2cccc3c(Nc4ccc(C(F)(F)F)cc4)nccc23)c1 [Example-45, 2-Chloro-5-(pivalamidomethyl)-N-(1-((4-(trifluoromethyl)phenyl)amino)isoquinolin-5-yl)benzamide]"
99.3,99.7,< 0.05,"CC(C)(C)C(=O)NCc1ccc(Cl)c(C(=O)Nc2cccc3c(Oc4ccc(F)c(C(F)(F)F)c4)ccnc23)c1F [Example-51, 6-Chloro-2-fluoro-N-(4-(4-fluoro-3-(trifluoromethyl)phenoxy)quinolin-8-yl)-3-(pivalamidomethyl)benzamide]"
74.1,96,> 0.1,"Cc1nc(NC(C)C)c2cccc(NC(=O)c3c(Cl)ccc(CNC(=O)C(C)(C)C)c3F)c2n1 [Example-57, 6-Chloro-2-fluoro-N-(4-(isopropylamino)-2-methylquinazolin-8-yl)-3-(pivalamidomethyl)benzamide]"
89.4,97.7,< 0.05,"CC(C)(C)C(=O)NCc1ccc(Cl)c(C(=O)Nc2cccc3c(Oc4ccc(C(F)(F)F)cc4)nccc23)c1 [Example-46, 2-Chloro-5-(pivalamidomethyl)-N-(1-(4-(trifluoromethyl)phenoxy)isoquinolin-5-yl)benzamide]"
91.9,91,< 0.05,"COc1c(CNC(=O)C(C)(C)C)ccc(Cl)c1C(=O)Nc1cccc2c(Oc3cccc(C(F)(F)F)c3)ncnc12 [Example-49, 6-Chloro-2-methoxy-3-(pivalamidomethyl)-N-(4-(3-(trifluoromethyl)phenoxy)quinazolin-8-yl)benzamide]"
83.5,93.4,0.05 to 0.1,"CC(C)Nc1ncnc2c(NC(=O)c3cc(CNC(=O)C(C)C)cnc3C(F)F)cccc12 [Example-76, 2-(Difluoromethyl)-5-(isobutyramidomethyl)-N-(4-(isopropylamino)quinazolin-8-yl)nicotinamide]"
99,98,< 0.05,"CC(C)(C)C(=O)NCc1ccc(Cl)c(C(=O)Nc2cccc3c(Nc4cccc(C(F)(F)F)c4)ncnc23)n1 [Example-8, 3-Chloro-6-(pivalamidomethyl)-N-(4-((3-(trifluoromethyl)phenyl)amino)quinazolin-8-yl)picolinamide]"
99.1,100,< 0.05,"CC(C)(C)C(=O)NCc1ccc(Cl)c(C(=O)Nc2cccc3c(Oc4cc(C(F)(F)F)ccc4F)ncnc23)c1F [Example-28, 6-Chloro-2-fluoro-N-(4-(2-fluoro-5-(trifluoromethyl)phenoxy)quinazolin-8-yl)-3-(pivalamidomethyl)benzamide]"
100,96.7,< 0.05,"CC(C)(C)C(=O)NCc1ccc(Cl)c(C(=O)Nc2cccc3c(Oc4cccc(C(F)(F)F)c4)nccc23)c1 [Example-7, 2-Chloro-5-(pivalamidomethyl)-N-(1-(3-(trifluoromethyl)phenoxy)isoquinolin-5-yl)benzamide]"

# — US9006257B2, “Bicyclic compounds as mPGES-1 inhibitors” (Glenmark Pharmaceuticals S.A., priority 2012, dated 2015)
